Test results: US10392368B2, “Pyrazolo and triazolo bicyclic compounds as JAK kinase inhibitors” (THERAVANCE BIOPHARMA R&D IP, LLC, priority 2017, dated 2019)
Where two headings read alike, the source gives them in different places.

Tests used:
[1] = target: T1, JAK1 (Homo sapiens, UniProt P23458); test: Biochemical JAK1 kinase assay (LanthaScreen); details: for Ki: read-out: JAK 1 (pKi) (converted)
T1 construct: GST; purchased Life Technologies
How it was run: (§1)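 Recombinant GST-tagged JAK enzymes with GFP-STAT1 peptide substrate in 50 mM HEPES pH 7.5, 10 mM MgCl2, 1 mM EGTA, 0.01% Brij-35; compounds pre-incubated 1 h, then ATP added, 1 h reaction at ambient temperature. TR-FRET (Tb-anti-pSTAT1 pTyr701, 520/495 nm) after EDTA stop; IC50 by 4-parameter fit, converted to pKi via Cheng-Prusoff.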

[2] = test system: IL-2 stimulated pSTAT5 in Tall-1 T cells; test: Cellular JAK3 potency assay: inhibition of IL-2 stimulated pSTAT5 in Tall-1 T cells; format: cell-based, human; details: for Tall-1 (pIC50): IL-2 stimulated pSTAT5, Tall-1 T cells; for IC50: Homo sapiens, read-out: Tall-1 (pIC50) (converted)
How it was run: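 Tall-1 human T cells (45,000/well) in phenol red-free DMEM with 10% FBS were preincubated with compound 1 h at 37 °C, then stimulated with IL-2 (final 300 ng/ml) for 30 min. Lysate pSTAT5 read by AlphaLisa; IC50 from inhibition curves, reported as pIC50 (mean±SD).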

[3] = target: T2, JAK2 (Homo sapiens, UniProt O60674); test: Biochemical JAK2 kinase assay (LanthaScreen); details: for Ki: read-out: JAK 2 (pKi) (converted)
T2 construct: GST; purchased Life Technologies
T2 sequence (O60674 whole entry): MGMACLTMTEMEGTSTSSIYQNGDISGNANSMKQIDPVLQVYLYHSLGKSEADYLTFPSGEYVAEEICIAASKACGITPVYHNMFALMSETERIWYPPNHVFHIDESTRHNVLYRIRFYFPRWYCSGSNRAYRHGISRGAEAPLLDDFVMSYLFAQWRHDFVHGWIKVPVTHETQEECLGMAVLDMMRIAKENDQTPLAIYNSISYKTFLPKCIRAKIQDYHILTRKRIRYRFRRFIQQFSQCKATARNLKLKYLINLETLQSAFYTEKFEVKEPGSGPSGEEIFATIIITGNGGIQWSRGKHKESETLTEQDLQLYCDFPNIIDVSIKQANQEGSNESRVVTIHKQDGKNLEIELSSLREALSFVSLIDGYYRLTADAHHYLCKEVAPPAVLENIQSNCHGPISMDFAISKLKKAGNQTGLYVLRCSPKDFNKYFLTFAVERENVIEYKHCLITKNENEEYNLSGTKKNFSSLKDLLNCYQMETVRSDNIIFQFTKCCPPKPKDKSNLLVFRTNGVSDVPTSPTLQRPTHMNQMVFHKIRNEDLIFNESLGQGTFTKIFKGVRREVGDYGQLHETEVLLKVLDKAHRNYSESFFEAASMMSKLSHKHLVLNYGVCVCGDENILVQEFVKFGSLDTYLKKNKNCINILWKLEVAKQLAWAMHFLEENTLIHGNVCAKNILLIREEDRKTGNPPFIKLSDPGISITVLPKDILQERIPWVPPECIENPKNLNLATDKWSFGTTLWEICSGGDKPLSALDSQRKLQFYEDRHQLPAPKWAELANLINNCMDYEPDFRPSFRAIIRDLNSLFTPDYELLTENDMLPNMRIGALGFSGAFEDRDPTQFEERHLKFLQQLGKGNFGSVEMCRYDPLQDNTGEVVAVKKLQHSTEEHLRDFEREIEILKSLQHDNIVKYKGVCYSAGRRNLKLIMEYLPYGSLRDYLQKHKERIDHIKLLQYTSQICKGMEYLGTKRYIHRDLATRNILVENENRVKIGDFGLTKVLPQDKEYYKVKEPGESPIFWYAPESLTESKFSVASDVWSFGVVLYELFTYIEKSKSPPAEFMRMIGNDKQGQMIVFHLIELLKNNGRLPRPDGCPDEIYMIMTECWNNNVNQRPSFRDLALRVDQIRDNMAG
How it was run: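 GST-tagged recombinant JAK2 pre-incubated 1 h at ambient temperature with compound and GFP-STAT1 peptide in HEPES pH 7.5/MgCl2 buffer, then ATP added for a 1 h reaction with 1% DMSO. TR-FRET read after EDTA and Tb-anti-pSTAT1 (pTyr701) addition; IC50 from 4-parameter fit, converted to pKi by Cheng-Prusoff.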

[4] = target: T3, JAK3 (Homo sapiens, UniProt P52333); test: Biochemical JAK3 kinase assay (LanthaScreen); design: GST; purchased Life Technologies; details: for Ki: read-out: JAK 3 (pKi) (converted)
T3 sequence (P52333 1-1124): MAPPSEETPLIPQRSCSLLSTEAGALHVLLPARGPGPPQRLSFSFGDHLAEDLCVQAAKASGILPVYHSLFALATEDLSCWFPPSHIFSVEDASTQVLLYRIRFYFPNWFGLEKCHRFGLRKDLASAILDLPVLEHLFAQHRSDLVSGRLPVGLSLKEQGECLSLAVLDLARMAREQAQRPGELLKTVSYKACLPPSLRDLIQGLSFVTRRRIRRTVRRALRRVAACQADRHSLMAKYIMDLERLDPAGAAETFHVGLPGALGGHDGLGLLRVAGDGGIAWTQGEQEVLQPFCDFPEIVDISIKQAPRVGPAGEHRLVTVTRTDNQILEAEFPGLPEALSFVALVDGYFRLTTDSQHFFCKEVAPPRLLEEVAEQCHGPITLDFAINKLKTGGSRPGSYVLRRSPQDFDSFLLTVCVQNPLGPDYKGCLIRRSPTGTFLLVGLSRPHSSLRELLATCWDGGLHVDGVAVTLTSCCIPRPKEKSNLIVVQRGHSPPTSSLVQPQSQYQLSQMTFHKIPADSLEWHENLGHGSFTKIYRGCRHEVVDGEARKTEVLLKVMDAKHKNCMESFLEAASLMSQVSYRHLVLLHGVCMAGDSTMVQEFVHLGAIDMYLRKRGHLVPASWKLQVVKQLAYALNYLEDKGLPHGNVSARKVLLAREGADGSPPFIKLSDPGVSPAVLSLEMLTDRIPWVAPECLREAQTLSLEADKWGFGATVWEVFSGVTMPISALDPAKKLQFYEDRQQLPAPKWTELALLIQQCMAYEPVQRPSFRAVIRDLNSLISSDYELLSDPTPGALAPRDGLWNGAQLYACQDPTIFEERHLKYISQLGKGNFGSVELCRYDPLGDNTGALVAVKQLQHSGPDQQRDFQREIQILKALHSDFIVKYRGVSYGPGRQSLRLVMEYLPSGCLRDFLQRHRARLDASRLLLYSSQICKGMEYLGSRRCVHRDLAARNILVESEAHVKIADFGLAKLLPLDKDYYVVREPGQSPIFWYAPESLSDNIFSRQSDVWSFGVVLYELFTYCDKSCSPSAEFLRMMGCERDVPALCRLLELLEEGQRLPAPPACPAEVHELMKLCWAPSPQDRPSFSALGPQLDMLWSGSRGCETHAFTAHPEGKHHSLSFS
How it was run: as §1

[5] = target: T4, Tyk2 (Homo sapiens, UniProt P29597); test: Biochemical Tyk2 kinase assay (LanthaScreen); details: for Ki: read-out: Tyk 2 (pKi) (converted)
T4 construct: GST; purchased Life Technologies
T4 sequence (P29597 whole entry): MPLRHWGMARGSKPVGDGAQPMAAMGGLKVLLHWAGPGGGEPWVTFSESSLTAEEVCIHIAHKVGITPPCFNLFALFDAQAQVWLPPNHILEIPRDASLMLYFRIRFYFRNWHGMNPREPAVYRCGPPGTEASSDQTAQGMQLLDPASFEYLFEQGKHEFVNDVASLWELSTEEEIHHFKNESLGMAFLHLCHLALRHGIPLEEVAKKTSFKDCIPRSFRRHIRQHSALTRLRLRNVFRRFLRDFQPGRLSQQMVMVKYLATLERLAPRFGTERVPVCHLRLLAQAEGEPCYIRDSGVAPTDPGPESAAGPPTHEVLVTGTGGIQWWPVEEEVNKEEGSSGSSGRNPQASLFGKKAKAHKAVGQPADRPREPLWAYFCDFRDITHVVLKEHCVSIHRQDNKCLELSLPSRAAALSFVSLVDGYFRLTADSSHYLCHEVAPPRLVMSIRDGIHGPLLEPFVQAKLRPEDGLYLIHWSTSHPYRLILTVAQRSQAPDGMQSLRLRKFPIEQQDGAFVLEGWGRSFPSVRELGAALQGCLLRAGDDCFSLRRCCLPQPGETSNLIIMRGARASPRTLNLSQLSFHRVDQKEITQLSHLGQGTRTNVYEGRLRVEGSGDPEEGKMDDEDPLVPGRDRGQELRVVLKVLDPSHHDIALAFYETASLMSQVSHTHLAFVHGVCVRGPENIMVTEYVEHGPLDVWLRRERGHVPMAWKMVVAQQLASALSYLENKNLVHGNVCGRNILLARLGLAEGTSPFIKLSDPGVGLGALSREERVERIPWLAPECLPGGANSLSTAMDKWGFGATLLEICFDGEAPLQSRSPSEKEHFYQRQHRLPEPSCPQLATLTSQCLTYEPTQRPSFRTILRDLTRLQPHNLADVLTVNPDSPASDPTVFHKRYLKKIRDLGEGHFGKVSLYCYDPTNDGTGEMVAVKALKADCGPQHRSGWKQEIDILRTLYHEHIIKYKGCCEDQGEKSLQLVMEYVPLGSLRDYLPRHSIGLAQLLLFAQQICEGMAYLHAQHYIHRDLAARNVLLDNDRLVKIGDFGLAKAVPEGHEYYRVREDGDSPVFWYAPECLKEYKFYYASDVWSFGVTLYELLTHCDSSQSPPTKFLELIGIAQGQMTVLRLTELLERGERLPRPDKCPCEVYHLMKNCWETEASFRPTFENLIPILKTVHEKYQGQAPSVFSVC
How it was run: as §1

[6] = selectivity JAK3 over JAK1, difference of pKi
[7] = TALL-1, IL-2 stimulated pSTAT5, Tall-1 T cells

T1 sequence (P23458 whole entry): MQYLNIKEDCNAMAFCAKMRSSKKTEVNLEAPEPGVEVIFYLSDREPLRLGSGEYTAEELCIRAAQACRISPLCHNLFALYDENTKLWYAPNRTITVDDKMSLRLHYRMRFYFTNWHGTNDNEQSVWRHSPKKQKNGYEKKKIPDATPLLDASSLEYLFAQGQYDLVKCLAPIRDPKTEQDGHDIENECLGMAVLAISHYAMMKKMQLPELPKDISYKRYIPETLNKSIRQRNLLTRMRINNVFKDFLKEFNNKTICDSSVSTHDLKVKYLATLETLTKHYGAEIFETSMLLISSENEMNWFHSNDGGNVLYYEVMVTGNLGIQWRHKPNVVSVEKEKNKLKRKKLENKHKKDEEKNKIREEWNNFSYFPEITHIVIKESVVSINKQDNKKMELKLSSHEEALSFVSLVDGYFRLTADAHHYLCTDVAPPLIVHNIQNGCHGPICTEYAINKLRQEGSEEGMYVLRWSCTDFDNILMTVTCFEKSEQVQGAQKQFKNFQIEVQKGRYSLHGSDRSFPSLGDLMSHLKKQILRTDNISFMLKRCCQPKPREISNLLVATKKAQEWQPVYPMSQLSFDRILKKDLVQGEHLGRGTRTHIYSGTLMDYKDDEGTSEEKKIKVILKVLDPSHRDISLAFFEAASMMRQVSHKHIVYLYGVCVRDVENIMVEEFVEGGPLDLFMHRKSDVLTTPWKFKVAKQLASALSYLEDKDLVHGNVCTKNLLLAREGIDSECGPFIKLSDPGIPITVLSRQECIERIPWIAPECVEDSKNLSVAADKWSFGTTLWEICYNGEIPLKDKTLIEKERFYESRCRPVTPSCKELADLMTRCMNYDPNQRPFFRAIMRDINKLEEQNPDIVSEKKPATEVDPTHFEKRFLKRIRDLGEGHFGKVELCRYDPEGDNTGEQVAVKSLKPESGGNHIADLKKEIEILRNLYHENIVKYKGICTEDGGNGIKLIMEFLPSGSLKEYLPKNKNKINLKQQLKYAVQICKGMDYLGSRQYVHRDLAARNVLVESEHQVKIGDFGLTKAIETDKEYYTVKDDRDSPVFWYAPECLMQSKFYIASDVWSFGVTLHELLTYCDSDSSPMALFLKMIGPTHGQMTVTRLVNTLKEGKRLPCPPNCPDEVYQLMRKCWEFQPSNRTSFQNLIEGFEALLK

Row | Structure (SMILES) | JAK 1 (pKi) [1] | Tall-1 (pIC50) [2] | JAK 2 (pKi) [3] | JAK 3 (pKi) [4] | JAK3 (pKi)-JAK1 (pKi) [4, 6] | Tyk 2 (pKi) [5] | Ki [1] | IC50 ([2]; TALL-1, IL-2 stimulated pSTAT5 in Tall-1 T cells) | Ki [3] | Ki [4] | JAK3 (pKi)-JAK1 (pKi) ([4]; selectivity: difference of pKi JAK3 and pKi JAK1) | Ki [5] | IC50 [2, 7]
1 | C=CC(=O)N1CC2(CC(Oc3nc(-c4ccc(O)c(F)c4)nc4[nH]ncc34)C2)C1 [Compound 15-10] | E (a pKi value of 7 or below (Ki of 100 nM or above)) | A (a pIC50 value≥7.5 (IC50≤32 nM)) | E (a pKi value of 7 or below (Ki of 100 nM or above)) | A (a pKi value≥10 (Ki≤0.1 nM)) | A (a value of 3 or above) | E (a pKi value of 7 or below (Ki of 100 nM or above)) | – | – | – | – | – | – | –
2 | CN(C)C/C=C/C(=O)N1CC(OCc2cc(-c3ccc(O)c(Cl)c3)cc3[nH]ncc23)C1 [Compound 16-1] | E (a pKi value of 7 or below (Ki of 100 nM or above)) | B (a pIC50 value between 6.7 (included) and 7.5 (IC50 between 200 nM and 32 nM)) | E (a pKi value of 7 or below (Ki of 100 nM or above)) | A (a pKi value≥10 (Ki≤0.1 nM)) | A (a value of 3 or above) | E (a pKi value of 7 or below (Ki of 100 nM or above)) | – | – | – | – | – | – | –
3 | C=CC(=O)N1CC(OCc2cc(-c3ccc(O)c(Cl)c3)cc3[nH]ncc23)C1 [Compound 16-2] | E (a pKi value of 7 or below (Ki of 100 nM or above)) | A (a pIC50 value≥7.5 (IC50≤32 nM)) | E (a pKi value of 7 or below (Ki of 100 nM or above)) | A (a pKi value≥10 (Ki≤0.1 nM)) | A (a value of 3 or above) | E (a pKi value of 7 or below (Ki of 100 nM or above)) | – | – | – | – | – | – | –
4 | C=CC(=O)N1CC(OCc2cc(-c3ccc(O)c(F)c3)cc3[nH]ncc23)C1 [Compound 16-3] | E (a pKi value of 7 or below (Ki of 100 nM or above)) | A (a pIC50 value≥7.5 (IC50≤32 nM)) | E (a pKi value of 7 or below (Ki of 100 nM or above)) | B (a pKi value between 9 and 10 (Ki between 1 nM and 0.1 nM)) | A (a value of 3 or above) | E (a pKi value of 7 or below (Ki of 100 nM or above)) | – | – | – | – | – | – | –
5 | C=CC(=O)N1CC(OCc2nc(-c3ccc(O)cc3)cc3[nH]ncc23)C1 [Compound 16-5] | E (a pKi value of 7 or below (Ki of 100 nM or above)) | A (a pIC50 value≥7.5 (IC50≤32 nM)) | E (a pKi value of 7 or below (Ki of 100 nM or above)) | A (a pKi value≥10 (Ki≤0.1 nM)) | A (a value of 3 or above) | E (a pKi value of 7 or below (Ki of 100 nM or above)) | – | – | – | – | – | – | –
6 | CN(C)C/C=C/C(=O)N1CC(OCc2nc(-c3ccc(O)cc3)cc3[nH]ncc23)C1 [Compound 16-6] | E (a pKi value of 7 or below (Ki of 100 nM or above)) | C (a pIC50 value between 6 and 6.7 (IC50 between 1 μM and 200 nM)) | E (a pKi value of 7 or below (Ki of 100 nM or above)) | B (a pKi value between 9 and 10 (Ki between 1 nM and 0.1 nM)) | A (a value of 3 or above) | E (a pKi value of 7 or below (Ki of 100 nM or above)) | – | – | – | – | – | – | –
7 | CN(C)C/C=C/C(=O)N1CC(OCc2cc(-c3ccc(O)c(F)c3)cc3[nH]ncc23)C1 [Compound 16-7] | E (a pKi value of 7 or below (Ki of 100 nM or above)) | B (a pIC50 value between 6.7 (included) and 7.5 (IC50 between 200 nM and 32 nM)) | E (a pKi value of 7 or below (Ki of 100 nM or above)) | A (a pKi value≥10 (Ki≤0.1 nM)) | A (a value of 3 or above) | E (a pKi value of 7 or below (Ki of 100 nM or above)) | – | – | – | – | – | – | –
8 | C=CC(=O)N1CC(COc2cc(-c3ccc(O)cc3)cc3[nH]nnc23)C1 [Compound 17-1] | E (a pKi value of 7 or below (Ki of 100 nM or above)) | B (a pIC50 value between 6.7 (included) and 7.5 (IC50 between 200 nM and 32 nM)) | E (a pKi value of 7 or below (Ki of 100 nM or above)) | B (a pKi value between 9 and 10 (Ki between 1 nM and 0.1 nM)) | A (a value of 3 or above) | E (a pKi value of 7 or below (Ki of 100 nM or above)) | – | – | – | – | – | – | –
9 | C=CS(=O)(=O)N1CC[C@H](Oc2cc(-c3ccc(O)cc3)cc3[nH]ncc23)C1 [Compound 18, (S)-4-(4-((1-(vinylsulfonyl)pyrrolidin-3-yl)oxy)-1H-indazol-6-yl)phenol] | – | – | – | – | – | – | > 100 nM | < 31.6 nM | 10 to 100 nM | 0.1 to 1 nM | A (a value of 3 or above) | > 100 nM | –
10 | Cc1n[nH]c2cc(-c3ccc(O)c(Cl)c3)cc(OCC3CN(C(=O)/C=C/CN(C)C)C3)c12 [Compound 18-1] | – | – | – | – | B (a value of 2.3 to 3) | – | > 100 nM | – | 10 to 100 nM | 0.1 to 1 nM | – | > 100 nM | < 31.6 nM
11 | CN(C)C/C=C/C(=O)N1CC(COc2cc(-c3cc(F)c(O)cc3F)cc3[nH]ncc23)C1 [Compound 18-3] | – | – | – | – | B (a value of 2.3 to 3) | – | 10 to 100 nM | – | 10 to 100 nM | < 0.1 nM | – | > 100 nM | < 31.6 nM
12 | Cc1cc(-c2cc(OCC3CN(C(=O)/C=C/CN(C)C)C3)c3cn[nH]c3c2)ccc1O [Compound 18-8] | E (a pKi value of 7 or below (Ki of 100 nM or above)) | B (a pIC50 value between 6.7 (included) and 7.5 (IC50 between 200 nM and 32 nM)) | E (a pKi value of 7 or below (Ki of 100 nM or above)) | B (a pKi value between 9 and 10 (Ki between 1 nM and 0.1 nM)) | A (a value of 3 or above) | E (a pKi value of 7 or below (Ki of 100 nM or above)) | – | – | – | – | – | – | –
13 | C=CC(=O)N1CC(COc2cc(-c3ccc(O)c(C)c3)cc3[nH]ncc23)C1 [Compound 18-9] | – | – | – | – | A (a value of 3 or above) | – | > 100 nM | – | > 100 nM | < 0.1 nM | – | > 100 nM | < 31.6 nM
14 | C=CC(=O)N1CC(COc2cc(-c3ccc(O)cc3)cc3[nH]nc(SC)c23)C1 [Compound 18-10] | – | – | – | – | A (a value of 3 or above) | – | > 100 nM | – | 10 to 100 nM | < 0.1 nM | – | > 100 nM | 31.6 to 200 nM
15 | CN(C)C/C=C/C(=O)N1CC(COc2cc(-c3ccc(O)cc3)cc3[nH]nc(C(F)(F)F)c23)C1 [Compound 18-12] | – | – | – | – | B (a value of 2.3 to 3) | – | 10 to 100 nM | – | 10 to 100 nM | 0.1 to 1 nM | – | > 100 nM | 31.6 to 200 nM
16 | C=CC(=O)N1CC(COc2cc(-c3ccc(O)cc3)cc3[nH]nc(C(F)(F)F)c23)C1 [Compound 18-13] | – | – | – | – | A (a value of 3 or above) | – | > 100 nM | – | 10 to 100 nM | < 0.1 nM | – | > 100 nM | < 31.6 nM
